Molecules are shown by their SMILES.

The assay relates to phosphorylation of Serine 473 in Akt in MDA-MB-468 human breast adenocarcinoma cells. The experiment in a line: In vitro phospho-Ser473 Akt assay (Test (c)). The class given is cell-based. Particulars: Homo sapiens, MDA-MB-468, 2 h, MDA-MB-468 cells, 2 hours incubation; read-out: Test (c): IC50 versus Serine 473 in Akt. The essentials:
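MDA-MB-468 cells (15000/well, adhered overnight) treated with compound for 2 h at 37 °C, 5% CO2. After formaldehyde fixation, permeabilisation and blocking, phospho-Akt Ser473 immunostained with Alexafluor488 secondary and quantified by laser-scanning imaging (Acumen Explorer); IC50 from fluorescence dose–response.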
In the case of `CC(C)NC(=O)Nc1ccc(-c2nc(CS(=O)(=O)c3ccc(F)cc3)cc(N3CCOC[C@@H]3C)n2)cc1` [Example 61b, 1-[4-[4-[(4-fluorophenyl)sulfonylmethyl]-6-[(3S)-3-methylmorpholin-4-yl]pyrimidin-2-yl]phenyl]-3-propan-2-yl-urea], the IC50 was found to be 38 nM. In the case of `C[C@H]1COCCN1c1cc(CS(=O)(=O)c2ccc(F)cc2)nc(-c2ccc(NC(=O)NCCO)cc2)n1` [Example 61c, 1-[4-[4-[(4-fluorophenyl)sulfonylmethyl]-6-[(3S)-3-methylmorpholin-4-yl]pyrimidin-2-yl]phenyl]-3-(2-hydroxyethyl)urea] it was 410 nM; in that of `C[C@H]1COCCN1c1cc(CS(=O)(=O)c2ccc(F)cc2)nc(-c2ccc(NC(=O)NC(C)(C)CO)cc2)n1` [Example 61d, 1-[4-[4-[(4-fluorophenyl)sulfonylmethyl]-6-[(3S)-3-methylmorpholin-4-yl]pyrimidin-2-yl]phenyl]-3-(1-hydroxy-2-methyl-propan-2-yl)urea], 180 nM. Take `C[C@H]1COCCN1c1cc(CS(=O)(=O)c2ccc(F)cc2)nc(-c2ccc(NC(=O)NCCN(C)C)cc2)n1` [Example 61e, 3-(2-dimethylaminoethyl)-1-[4-[4-[(4-fluorophenyl)sulfonylmethyl]-6-[(3S)-3-methylmorpholin-4-yl]pyrimidin-2-yl]phenyl]urea]: the IC50 came out at 120 nM. In the case of `CC(C)CNC(=O)Nc1ccc(-c2nc(CS(=O)(=O)c3ccc(F)cc3)cc(N3CCOC[C@@H]3C)n2)cc1` [Example 61g, 1-[4-[4-[(4-fluorophenyl)sulfonylmethyl]-6-[(3S)-3-methylmorpholin-4-yl]pyrimidin-2-yl]phenyl]-3-(2-methylpropyl)urea] it was 450 nM; in that of `C[C@H]1COCCN1c1cc(CS(=O)(=O)c2ccc(F)cc2)nc(-c2ccc(NC(=O)NCCCO)cc2)n1` [Example 61h, 1-[4-[4-[(4-fluorophenyl)sulfonylmethyl]-6-[(3S)-3-methylmorpholin-4-yl]pyrimidin-2-yl]phenyl]-3-(3-hydroxypropyl)urea], 790 nM; in that of `CNC(=O)Nc1ccc(-c2nc(N3CCOC[C@@H]3C)cc(C(C)(C)S(=O)(=O)c3ccc(F)cc3)n2)cc1` [Example 61k, 1-[4-[4-[2-(4-fluorophenyl)sulfonylpropan-2-yl]-6-[(3S)-3-methylmorpholin-4-yl]pyrimidin-2-yl]phenyl]-3-methyl-urea], 120 nM.

As for `CCNC(=O)Nc1ccc(-c2nc(N3CCOC[C@@H]3C)cc(C(C)(C)S(=O)(=O)c3ccc(F)cc3)n2)cc1` [Example 61l, 1-ethyl-3-[4-[4-[2-(4-fluorophenyl)sulfonylpropan-2-yl]-6-[(3S)-3-methylmorpholin-4-yl]pyrimidin-2-yl]phenyl]urea], the half-maximal inhibitory concentration (IC50) was determined as 99 nM. In the case of `CC(C)NC(=O)Nc1ccc(-c2nc(N3CCOC[C@@H]3C)cc(C(C)(C)S(=O)(=O)c3ccc(F)cc3)n2)cc1` [Example 61m, 1-[4-[4-[2-(4-fluorophenyl)sulfonylpropan-2-yl]-6-[(3S)-3-methylmorpholin-4-yl]pyrimidin-2-yl]phenyl]-3-propan-2-yl-urea] it was 30 nM; in that of `C[C@H]1COCCN1c1cc(C(C)(C)S(=O)(=O)c2ccc(F)cc2)nc(-c2ccc(NC(=O)NC3CCC3)cc2)n1` [Example 61n, 3-cyclobutyl-1-[4-[4-[2-(4-fluorophenyl)sulfonylpropan-2-yl]-6-[(3S)-3-methylmorpholin-4-yl]pyrimidin-2-yl]phenyl]urea], 38 nM; in that of `C[C@H]1COCCN1c1cc(C(C)(C)S(=O)(=O)c2ccc(F)cc2)nc(-c2ccc(NC(=O)NCCN(C)C)cc2)n1` [Example 61o, 3-(2-dimethylaminoethyl)-1-[4-[4-[2-(4-fluorophenyl)sulfonylpropan-2-yl]-6-[(3S)-3-methylmorpholin-4-yl]pyrimidin-2-yl]phenyl]urea], 45 nM. In the case of `C[C@H]1COCCN1c1cc(C(C)(C)S(=O)(=O)c2ccc(F)cc2)nc(-c2ccc(NC(=O)NC3CC3)cc2)n1` [Example 61q, 3-cyclopropyl-1-[4-[4-[2-(4-fluorophenyl)sulfonylpropan-2-yl]-6-[(3S)-3-methylmorpholin-4-yl]pyrimidin-2-yl]phenyl]urea] it was 77 nM; in that of `C[C@H]1COCCN1c1cc(C(=O)N2CCOCC2)nc(-c2ccc(NC(=O)NC3CC3)cc2)n1` [Example 63, 3-Cyclopropyl-1-[4-[4-[(3S)-3-methylmorpholin-4-yl]-6-(morpholine-4-carbonyl)pyrimidin-2-yl]phenyl]urea], 410 nM; in that of `C[C@H]1COCCN1c1cc(C(=O)N2CCCNCC2)nc(-c2ccc(NC(=O)NC3CC3)cc2)n1` [Example 63a, 3-cyclopropyl-1-[4-[4-(1,4-diazepane-1-carbonyl)-6-[(3S)-3-methylmorpholin-4-yl]pyrimidin-2-yl]phenyl]urea], 92 nM. Regarding `C[C@H]1COCCN1c1cc(C(=O)N2CCS(=O)(=O)CC2)nc(-c2ccc(NC(=O)NC3CC3)cc2)n1` [Example 63b, 3-cyclopropyl-1-[4-[4-(1,1-dioxo1,4-thiazinane-4-carbonyl)-6-[(3S)-3-methylmorpholin-4-yl]pyrimidin-2-yl]phenyl]urea], the IC50 is 500 nM. In the case of `C[C@@H]1CN(C(=O)c2cc(N3CCOC[C@@H]3C)nc(-c3ccc(NC(=O)NC4CC4)cc3)n2)C[C@H](C)O1` [Example 63c, 3-cyclopropyl-1-[4-[4-[(2R,6S)-2,6-dimethylmorpholine-4-carbonyl]-6-[(3S)-3-methylmorpholin-4-yl]pyrimidin-2-yl]phenyl]urea] it was 260 nM; in that of `C[C@H]1COCCN1c1cc(C(C)(C)S(=O)(=O)C(C)(C)C)nc(-c2ccc(NC(=O)NC3CC3)cc2)n1` [Example 66c, 3-cyclopropyl-1-[4-[4-[(3S)-3-methylmorpholin-4-yl]-6-(2-tert-butylsulfonylpropan-2-yl)pyrimidin-2-yl]phenyl]urea], 150 nM.

With `C[C@H]1COCCN1c1cc(C(C)(C)S(=O)(=O)C(C)(C)C)nc(-c2ccc(NC(=O)NC3CCC3)cc2)n1` [Example 66d, 3-cyclobutyl-1-[4-[4-[(3S)-3-methylmorpholin-4-yl]-6-(2-tert-butylsulfonylpropan-2-yl)pyrimidin-2-yl]phenyl]urea], the half-maximal inhibitory concentration (IC50) was 160 nM.

Regarding `CCNC(=O)Nc1ccc(-c2nc(N3CCOC[C@@H]3C)cc(C(C)(C)S(=O)(=O)C(C)(C)C)n2)cc1` [Example 66e, 3-ethyl-1-[4-[4-[(3S)-3-methylmorpholin-4-yl]-6-(2-tert-butylsulfonylpropan-2-yl)pyrimidin-2-yl]phenyl]urea], the concentration for half-maximal inhibition (IC50) is 260 nM.

Regarding `C[C@H]1COCCN1c1cc(C(C)(C)S(=O)(=O)C(C)(C)C)nc(-c2ccc(NC(=O)NCCN(C)C)cc2)n1` [Example 66f, 3-(2-dimethylaminoethyl)-1-[4-[4-[(3S)-3-methylmorpholin-4-yl]-6-(2-tert-butylsulfonylpropan-2-yl)pyrimidin-2-yl]phenyl]urea], the 50% inhibitory concentration (IC50) amounted to 40 nM. In the case of `C[C@H]1COCCN1c1cc(C(C)(C)S(=O)(=O)C(C)(C)C)nc(-c2ccc(NC(=O)NCCO)cc2)n1` [Example 66g, 3-(2-hydroxyethyl)-1-[4-[4-[(3S)-3-methylmorpholin-4-yl]-6-(2-tert-butylsulfonylpropan-2-yl)pyrimidin-2-yl]phenyl]urea] it was 300 nM.

The values are drawn from US7750003B2, “Compounds-943” (AstraZeneca AB, priority 2006, dated 2010).
